What all share (format): in vivo
In one experiment the test system is Phytophthora infestans. Put plainly: whole plant or invertebrate. As to conditions: Phytophthora infestans, in Solanum lycopersicum, 96 h, read-out: control value (Test 1).
A further experiment concerns Plasmopara viticola. The experiment can be described thus: Test 3: control effect against grape downy mildew. Conditions: Plasmopara viticola, 120 h, control value vs untreated section. The method, boiled down: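 Neomuscat grape seedlings were sprayed with compound at 4 ppm, diluted from a 10% wettable powder in Tween20 solution. One day later they were inoculated with Plasmopara viticola zoospores at 1.0×10^4 units/ml and held moist at 22° C. for 16 hr. Control value was derived from leaf lesion area at 5 days versus untreated leaves.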

In the next experiment the test system is Pythium graminicola. Put plainly: Test 4: control effect against rice damping-off by the Pythium fungus (soil lavage). Conditions: 1,000 ppm, 2.5 ml test suspension drenched on contaminated soil, rice (koshihikari). On the procedure: A 10% wettable powder created according to the Pharmaceutical Formulation Example 1 was diluted with a Tween20 solution prepared to a concentration of 1/5000, then the compound of formula [1] was prepared to a concentration of 4 ppm. Further, the compound of formula [1] in Test 4 was adjusted to a concentration of 1,000 ppm.
<Test 4 Test of Control Effect Against Rice Damping-Off by the Pythium Fungus (Soil Lavage)>
Distilled water was added to the flora of Pythium graminicola cultured in bentoglass seed culture and stirred with a mixer, and adjusted the contaminated soil to 5 g of bacteria against 1 kg of soil.
In a cell tray having 31×31 mm^2 per cell, 20 ml of the contaminated soil was filled in each cell, and 3 seeds of rice chaff that has been forced to sprout (Species: koshihikari) were seeded, and 5 ml of soil was added for covering, then 2.5 ml of test suspension was drenched, and the seeds were incubated in a moist chamber adjusted to 28° C. for 72 hr to induce sprouting. Then, in a low temperature room of 5° C., the onset of disease was induced for 2 days, then the disease was nurtured for 14 days in a room of 25° C.
The soil was washed, and the apoptosis strain, growth restrained strain, and a healthy strain were measured and the onset rate was calculated by the following formula. Onset rate=[Σ(onset strain number by level×onset index)/(investigated strain×3)]×100 [Onset Index]
1: Growth restrained strain
Also, the following formula was used to compute the control value from the obtained onset index. control value={1−onset area rate at the section applied the test agent/onset area rate of untreated section}×100 Computational formula of the control value: […]

Experiment [1] has as its system Pseudoperonospora cubensis. Put plainly: Test 2: control effect against cucumber downy mildew. Conditions: Pseudoperonospora cubensis, 120 h, control value vs untreated section. In a few lines:
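Cucumber (Sagami hanjiro) at 2-leaf stage sprayed with 4 ppm compound from 10% wettable powder in Tween20 (1/5000); inoculated next day with P. cubensis zoospores, 1.0×10^4 units/ml, 16 hr moist chamber at 22° C. Lesion area rate scored 5 days post-inoculation; control value = (1 − treated/untreated onset area rate)×100.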

Bounds are passed on as bounds.

As to `Cc1cc(C(F)(F)F)nn1CC(=O)N1CCC(c2nc(C3OCc4ccc(F)c(OS(C)(=O)=O)c4CO3)cs2)CC1` (stereo not drawn) [Compound 1-45, 4-[4-(7-fluoro-6-methylsulfonyloxy-1,5-dihydro-3H-2,4-benzodioxepin-3-yl)-2-thiazolyl]-1-[2-[5-methyl-3-(trifluoromethyl)-1H-pyrazole-1-yl]acetyl]piperidine], the pest or weed control at 4 µg/mL (in the experiment with Phytophthora infestans; in the experiment with Plasmopara viticola; in experiment [1]) was 100% each time. In the experiment with Pythium graminicola, this molecule registered a pest or weed control at 1000 ppm of at least 90%.
As for `Cc1cc(C(F)(F)F)nn1CC(=O)N1CCC(c2nc(C3OCc4cccc(S(C)(=O)=O)c4CO3)cs2)CC1` (stereo not drawn) [Compound 1-47, 4-[4-(6-methylsulfonyl-1,5-dihydro-3H-2,4-benzodioxepin-3-yl)-2-thiazolyl]-1-[2-[5-methyl-3-(trifluoromethyl)-1H-pyrazole-1-yl]acetyl]piperidine], the pest or weed control at 4 µg/mL (in the experiment on Phytophthora infestans; with Plasmopara viticola; in experiment [1]) was 100% throughout. In the experiment on Pythium graminicola, the pest or weed control at 1000 ppm is at least 90%.
In the case of `O=C(Cn1nc(C(F)F)cc1C(F)F)N1CCC(c2nc(C3OCc4ccc([N+](=O)[O-])cc4CO3)cs2)CC1` (stereo not drawn) [Compound 1-49, 4-[4-(7-nitro-1,5-dihydro-3H-2,4-benzodioxepin-3-yl)-2-thiazolyl]-1-[2-[3,5-bis(difluoromethyl)-1H-pyrazole-1-yl]acetyl]piperidine], the pest or weed control at 4 µg/mL (in the experiment on Phytophthora infestans; with Plasmopara viticola; in experiment [1]) was 100% in each case. The pest or weed control at 1000 ppm with Pythium graminicola is at least 90%.
As for `O=C(Cn1nc(C(F)(F)F)cc1C(F)(F)F)N1CCC(c2nc(C3OCc4c(F)ccc(F)c4CO3)cs2)CC1` [Compound 1-50, 4-[4-(6,9-difluoro-1,5-dihydro-3H-2,4-benzodioxepin-3-yl)-2-thiazolyl]-1-[2-[3,5-bis(trifluoromethyl)-1H-pyrazole-1-yl]acetyl]piperidine], the pest or weed control at 4 µg/mL (with Phytophthora infestans; in the experiment on Plasmopara viticola; in experiment [1]) was 100% each time. In the experiment on Pythium graminicola, this molecule showed a pest or weed control at 1000 ppm of at least 90%.
With `O=C(Cn1nc(C(F)F)cc1C(F)F)N1CCC(c2nc(C3OCc4c(F)ccc(F)c4CO3)cs2)CC1` [Compound 1-51, 4-[4-(6,9-difluoro-1,5-dihydro-3H-2,4-benzodioxepin-3-yl)-2-thiazolyl]-1-[2-[3,5-bis(difluoromethyl)-1H-pyrazole-1-yl]acetyl]piperidine], the pest or weed control at 4 µg/mL (in the experiment with Phytophthora infestans; in the experiment on Plasmopara viticola; in experiment [1]) was 100% each time. The molecule further had a pest or weed control at 1000 ppm with Pythium graminicola of at least 90%.
As for `COc1ccc(Br)c2c1COC(c1csc(C3CCN(C(=O)Cn4nc(C(F)F)cc4C(F)F)CC3)n1)OC2` (stereo not drawn) [Compound 1-57, 4-[4-(6-bromo-9-methoxy-1,5-dihydro-3H-2,4-benzodioxepin-3-yl)-2-thiazolyl]-1-[2-[3,5-bis(difluoromethyl)-1H-pyrazole-1-yl]acetyl]piperidine], the pest or weed control at 4 µg/mL (in the experiment on Phytophthora infestans; in the experiment with Plasmopara viticola; in experiment [1]) was 100% in each case. For the same molecule, the pest or weed control at 1000 ppm in the experiment with Pythium graminicola is at least 90%.
With `CS(=O)(=O)Oc1ccc(F)c2c1COC(c1csc(C3CCN(C(=O)Cn4nc(C(F)F)cc4C(F)F)CC3)n1)OC2` (stereo not drawn) [Compound 1-62, 4-[4-(6-fluoro-9-methylsulfonyloxy-1,5-dihydro-3H-2,4-benzodioxepin-3-yl)-2-thiazolyl]-1-[2-[3,5-bis(difluoromethyl)-1H-pyrazole-1-yl]acetyl]piperidine], the pest or weed control at 4 µg/mL (in the experiment with Phytophthora infestans; with Plasmopara viticola; in experiment [1]) was 100% each time. Besides, the pest or weed control at 1000 ppm in the experiment on Pythium graminicola was at least 90%.
Take `Cc1cc(C(F)(F)F)nn1CC(=O)N1CCC(c2nc(C3OCc4cccc(CCl)c4CO3)cs2)CC1` (stereo not drawn) [Compound 1-69, 4-[4-[6-(chloromethyl)-1,5-dihydro-3H-2,4-benzodioxepin-3-yl]-2-thiazolyl]-1-[2-[5-methyl-3-(trifluoromethyl)-1H-pyrazole-1-yl]acetyl]piperidine]: the pest or weed control at 4 µg/mL in the experiment with Phytophthora infestans came out at 100%; in the experiment on Plasmopara viticola, 100%; in experiment [1], 60%. In the experiment on Pythium graminicola, this molecule registered a pest or weed control at 1000 ppm of at least 90%.
For `Cc1cc(C(F)(F)F)nn1CC(=O)N1CCC(c2nc(C3OCc4cccc(C=O)c4CO3)cs2)CC1` (stereo not drawn) [Compound 1-70, 4-[4-(6-formyl-1,5-dihydro-3H-2,4-benzodioxepin-3-yl)-2-thiazolyl]-1-[2-[5-methyl-3-(trifluoromethyl)-1H-pyrazole-1-yl]acetyl]piperidine], the pest or weed control at 4 µg/mL amounted to 100% with Phytophthora infestans, 100% in the experiment on Plasmopara viticola and 60% in experiment [1]. This molecule yielded a pest or weed control at 1000 ppm in the experiment on Pythium graminicola of at least 90%.
For the molecule `Cc1cc(C(F)(F)F)nn1CC(=O)N1CCC(c2nc(C3OCc4cccc(CC#N)c4CO3)cs2)CC1` (stereo not drawn) [Compound 1-72, 4-[4-[6-(cyanomethyl)-1,5-dihydro-3H-2,4-benzodioxepin-3-yl]-2-thiazolyl]-1-[2-[5-methyl-3-(trifluoromethyl)-1H-pyrazole-1-yl]acetyl]piperidine], the pest or weed control at 4 µg/mL (in the experiment on Phytophthora infestans; in the experiment on Plasmopara viticola; in experiment [1]) was 100% in each case. Further, the pest or weed control at 1000 ppm in the experiment with Pythium graminicola was at least 90%.
With `CC(C)(C)c1ccc2c(c1)COC(c1csc(C3CCN(C(=O)Cn4nc(C(F)F)cc4C(F)F)CC3)n1)OC2` (stereo not drawn) [Compound 1-78, 4-[4-(7-tert-butyl-1,5-dihydro-3H-2,4-benzodioxepin-3-yl)-2-thiazolyl]-1-[2-[3,5-bis(difluoromethyl)-1H-pyrazole-1-yl]acetyl]piperidine], the pest or weed control at 4 µg/mL (with Phytophthora infestans; with Plasmopara viticola; in experiment [1]) was 100% each time. In addition, the pest or weed control at 1000 ppm in the experiment on Pythium graminicola was at least 90%.
Regarding `Cc1cc(C(F)(F)F)nn1CC(=O)N1CCC(c2nc(C3OCc4ccc(C(C)(C)C)cc4CO3)cs2)CC1` (stereo not drawn) [Compound 1-79, 4-[4-(7-tert-butyl-1,5-dihydro-3H-2,4-benzodioxepin-3-yl)-2-thiazolyl]-1-[2-[5-methyl-3-(trifluoromethyl)-1H-pyrazole-1-yl]acetyl]piperidine], the pest or weed control at 4 µg/mL came to 100% in the experiment with Phytophthora infestans, 90% with Plasmopara viticola and 90% in experiment [1]. The molecule further yielded a pest or weed control at 1000 ppm with Pythium graminicola of at least 90%.
For `O=C(Cn1nc(C(F)(F)F)cc1C(F)(F)F)N1CCC(c2nc(C3OCc4c(F)c(F)c(F)c(F)c4CO3)cs2)CC1` [Compound 1-84, 4-[4-(6,7,8,9-tetrafluoro-1,5-dihydro-3H-2,4-benzodioxepin-3-yl)-2-thiazolyl]-1-[2-[3,5-bis(trifluoromethyl)-1H-pyrazole-1-yl]acetyl]piperidine], the pest or weed control at 4 µg/mL (with Phytophthora infestans; with Plasmopara viticola; in experiment [1]) was 100% each time. Besides, in the experiment with Pythium graminicola, the pest or weed control at 1000 ppm was at least 90%.
Regarding `Cc1cc(C(F)(F)F)nn1CC(=O)N1CCC(c2nc(C3OCc4cccc(OS(=O)(=O)N(C)C)c4CO3)cs2)CC1` (stereo not drawn) [Compound 1-90, 4-[4-[6-(dimethylaminosulfonyloxy)-1,5-dihydro-3H-2,4-benzodioxepin-3-yl]-2-thiazolyl]-1-[2-[5-methyl-3-(trifluoromethyl)-1H-pyrazole-1-yl]acetyl]piperidine], the pest or weed control at 4 µg/mL (with Phytophthora infestans; in the experiment with Plasmopara viticola; in experiment [1]) was 100% throughout. For the same molecule, the pest or weed control at 1000 ppm with Pythium graminicola is at least 90%.
On to `O=C(Cn1nc(C(F)(F)F)cc1C(F)(F)F)N1CCC(c2nc(C3OCc4ccc(F)cc4CO3)cs2)CC1` (stereo not drawn) [Compound 1-91, 4-[4-(7-fluoro-1,5-dihydro-3H-2,4-benzodioxepin-3-yl)-2-thiazolyl]-1-[2-[3,5-bis(trifluoromethyl)-1H-pyrazole-1-yl]acetyl]piperidine], for which the pest or weed control at 4 µg/mL (with Phytophthora infestans; in the experiment with Plasmopara viticola; in experiment [1]) was 100% in each case. In the experiment on Pythium graminicola, this molecule displayed a pest or weed control at 1000 ppm of at least 90%.

Source of the values: patent publication US10104891B2 (priority 2014, dated 2018).
